The assay addresses T1, APE1 (Homo sapiens, UniProt P27695).
T1 construct: endogenous in cells; host or cells: HEK293T (ATCC CRL-3216)
The experiment in a line: APE1 inhibitor effect on indels and base diversification by AID or pmCDA1 fused to Cas9 nickase (D10A), HTS. The note with it: HEK293T cells, 100 μM and 200 μM, 3d, FIG. 6. It is filed as cell-based. The method, then: APE1 was inhibited by using CRT0044876 (Scheme 1), which is a potent and well-known APE1 inhibitor.
To ascertain whether this compound improves base diversification profile, HEK293T cells were treated with AID or pmCDA1 fused to Cas9 nickase (D10A) in the presence of CRT0044876. After 3d, the cells were harvested and analyzed through high-throughput sequencing (HTS).

From US20210238598A1, “COMPOSITIONS, SYSTEMS, AND METHODS FOR BASE DIVERSIFICATION” (Pairwise Plants Services, Inc., priority 2020, published 2021) come the findings set out here.

T1 sequence (P27695 whole entry): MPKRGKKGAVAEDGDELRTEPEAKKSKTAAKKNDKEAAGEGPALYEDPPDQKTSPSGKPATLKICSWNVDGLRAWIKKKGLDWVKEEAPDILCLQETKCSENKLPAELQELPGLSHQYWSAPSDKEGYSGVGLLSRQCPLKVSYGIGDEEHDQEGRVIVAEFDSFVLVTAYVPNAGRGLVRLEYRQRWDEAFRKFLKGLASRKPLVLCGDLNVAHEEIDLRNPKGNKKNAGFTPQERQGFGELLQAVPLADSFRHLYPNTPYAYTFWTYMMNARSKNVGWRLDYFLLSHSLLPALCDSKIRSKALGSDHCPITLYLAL

For `O=C(O)c1cc2cccc([N+](=O)[O-])c2[nH]1` [CRT0044876], the base diversification rate result was “some decrease”. The “amount of indel generated” value (multiple target sites) is “significant decrease”.
